Measured values from patent publication US20250388623A1, “PEPTIDE INHIBITOR AND USE THEREOF” (CHENGDU BRILLIANT INSPIRATION BIOTHERAPEUTICS CO., LTD, priority 2022, published 2025).
Bridge positions count the residues as written; N and C are the ends. Peptide text beside a SMILES is read from it.

How the values were obtained:
[1] = system: human breast cancer MCF7 cells; experiment: Transwell tumor cell migration, co-culture with PMA-differentiated THP-1 cells; assay type: cell-based; details: 100 μM polypeptide 48 h, co-culture 48 h; negative control group = 100.00
Experimental: (§1) This Example was to assess the effects of polypeptides on the migration abilities of different tumor cells. The experiment was performed using transwell nested chambers (membrane pore size of 8 μm), where THP-1 cells were inoculated in the lower chamber and treated with 300 nM PMA (Sigma, Catalog No.P1585) for differentiation and chamber-wall adherence, and then treated with 100 μM polypeptide (in the negative control, an equal volume of solvent was added) for 48 hours. The upper chamber was inoculated with tumor cells, human lung adenocarcinoma A549 cells (American Typical Culture Collection, ATCC, CCL-18), and co-cultured for 24 hours; or inoculated with human liver cancer HepG2/C3A cells (ATCC, CRL-10741), and co-cultured for 24 h; or inoculated with human breast cancer MCF7 cells (ATCC, HTB-22), and co-cultured for 48 h. After that, the upper chamber was taken out, fixed with 70% ethanol for 10 min and washed, then stained with Giemsa staining solution (Beyotime, Catalog No.C0131) for 45 min. After washing with double distilled water 2-3 times, unmigrated cells were wiped off the upper layer with a cotton swab. After the chamber was dried, it was observed under a microscope, and five different fields of view under a 100× magnification were randomly selected for counting and statistics. The polypeptides had significant inhibitory effects on the migratory abilities of human lung adenocarcinoma cells, human liver cancer cells, and human breast cancer cells.

[2] = system: human lung adenocarcinoma A549 cells; experiment: as above; assay type: cell-based; details: 100 μM polypeptide 48 h, co-culture 24 h; negative control group = 100.00
Experimental: as §1

[3] = system: human liver cancer HepG2/C3A cells; experiment: as above; assay type: cell-based; details: 100 μM polypeptide 48 h, co-culture 24 h; negative control group = 100.00
Experimental: as §1

[4] = system: active TGF-β; experiment: Active TGF-β level in lung tissue, bleomycin (BLM) mouse lung fibrosis model; assay type: in vivo; details: single intratracheal dose 3 mg/kg on Day 7, lung 24 h later, BLM model group = 100.00
Summary of the method: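 Male C57/6J mice (6–8 wk) received intratracheal bleomycin 0.7 USP/kg on Day 1, then a single intratracheal peptide dose of 3 mg/kg on Day 7, with saline for the model group. The value is the ratio of peptide group to model group.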

[5] = system: mouse lung fibrosis model induced by bleomycin (BLM); experiment: Hydroxyproline (HYP) content / collagen deposition in lung, BLM mouse fibrosis model; assay type: in vivo; details: 3 mg/kg intratracheal twice weekly x4 from Day 8, Day 21, BLM model group = 100.00
Experimental: This Example was to evaluate the inhibitory effect of polypeptides on collagen deposition in fibrotic tissues. In this example, 6- to 8-week-old male C57/6J mice weighing 18-20 g were used as subjects for the study. The experimental animals were randomized into groups, eight animals in each group. On the day of modeling (Day 1), a 0.7 USP/kg dose of bleomycin solution was administered via the tracheal route to induce the model. Treatment dosing started on Day 8. Each peptide-treated group received the peptide drug intratracheally at a dosage of 3 mg/kg, administered twice weekly for a total of four doses. The BLM model group received an equal volume of solvent (saline) as a control. The administration procedure followed that described in Example 4. Day 21 was set as the experimental endpoint for assessing the degree of fibrosis in the model.
On Day21, the animals were dissected to collect lung tissues, and after grinding the lung tissues in liquid nitrogen, hydroxyproline (HYP) was extracted from the tissue using acid hydrolysis. HYP is a unique amino acid found in collagen, and the determination of HYP content is an important indicator reflecting the metabolism of collagen tissue and the degree of fibrosis. 1 mL of 6N HCl was added per 100 mg of tissue and thoroughly mixed, followed by hydrolysis at 121° C. for 6 hours. The hydrolysate was centrifuged, and the resulting supernatant, along with a gradient of HYP standard solutions (Sigma, Catalog No. V900395-25G) at different concentrations, was used for HYP content determination. To each well of a 96-well plate, 10 μL of the hydrolysate supernatant was added and dried in an oven at 65° C. 100 μL per well of 1.4% chloramine T oxidizing solution (Sigma, Catalog No. 23270-50G) was added, and incubated at room temperature for 15 minutes. 100 μL per well of Ehrlich's color development solution (Solarbio, Catalog No. G1290) was added and incubated at 65° C. for 30 minutes. The absorbance of each sample well was measured at 560 nm (OD560) using a multifunctional microplate reader (TECAN, model Infinite 200 Pro). The total HYP content in the lung tissue from each experimental group was calculated to determine the reduction percentage of HYP content in the peptide-treated group relative to the model group, and the inhibitory effect of the peptide molecule on collagen deposition at the fibrotic site was assessed.

Compound | MCF7 migration Mean (%) [1] [%] | A549 migration Mean (%) [2] [%] | HEPG2/C3A migration Mean (%) [3] [%] | active TGF-β content in lung tissue, ratio to model group, Mean(%) [4] [%] | HYP content in lung tissue relative to model group, Mean (%) [5] [%] | active TGF-β content in lung tissue, ratio to model group, Mean(%) ([4]; 3 mg/kg)
Ac-TQDAEDNTASH-NH2 [SEQ ID NO: 33, Ac-Thr-Gln-Asp-Ala-Glu-Asp-Asn-Thr-Ala-Ser-His-NH2] | 47.13 | 62.89 | 72.07 | 86.61 | 82.23 | –
Ac-TQDAEDPTAS-NH2 [SEQ ID NO: 25, Ac-Thr-Gln-Asp-Ala-Glu-Asp-Pro-Thr-Ala-Ser-NH2] | 61.75 | 62.95 | 63.99 | 86.63 | 77.75 | –
C[C@@H]1NC(=O)[C@H]([C@@H](C)O)NC(=O)[C@H](CC(N)=O)NC(=O)[C@H](CC(=O)O)NC(=O)[C@H](CCC(=O)O)NC(=O)[C@@H]2CCCN2C(=O)[C@H](CC(=O)O)NC(=O)[C@H](CCC(N)=O)NC(=O)[C@H]([C@@H](C)O)NC(=O)[C@H](CO)NC1=O [SEQ ID NO: 46, cyclo[Thr-Gln-Asp-Pro-Glu-Asp-Asn-Thr-Ala-Ser]] (cyclo(ASTQDPEDNT)) | 57.98 | 36.12 | 64.77 | 79.36 | 80.16 | –
Ac-TQDAEDN-NH2 [SEQ ID NO: 06, Ac-Thr-Gln-Asp-Ala-Glu-Asp-Asn-NH2] | 51.95 | 80.41 | 81.77 | 76.76 | 79.51 | –
CC(=O)N[C@H](C(=O)N[C@H]1CSSC[C@@H](C(N)=O)NC(=O)[C@H](CC(N)=O)NC(=O)[C@H](CC(=O)O)NC(=O)[C@H](CCC(=O)O)NC(=O)[C@H](C)NC(=O)[C@H](CC(=O)O)NC1=O)[C@@H](C)O [SEQ ID NO: 44, Ac-Thr-cyclo[Cys-Asp-Ala-Glu-Asp-Asn-Cys]-NH2] (Ac-TCDAEDNC-NH2; disulfide 2-8) | 68.24 | 73.63 | 70.63 | 81.73 | 78.25 | –
C[C@@H]1NC(=O)[C@H](CC(=O)O)NC(=O)[C@H](CCC(N)=O)NC(=O)[C@H]([C@@H](C)O)NC(=O)[C@H](CC(N)=O)NC(=O)[C@H](CC(=O)O)NC(=O)[C@H](CCC(=O)O)NC1=O [SEQ ID NO: 40, cyclo[Thr-Gln-Asp-Ala-Glu-Asp-Asn]] (cyclo(AEDNTQD)) | 51.27 | 67.97 | 67.27 | – | 77.88 | 68.27
Ac-TQDPEDNTAS-NH2 [SEQ ID NO: 26, Ac-Thr-Gln-Asp-Pro-Glu-Asp-Asn-Thr-Ala-Ser-NH2] | 63.23 | 73.25 | 55.16 | 83.44 | 72.07 | –
Ac-TQDAEDPTA-NH2 [SEQ ID NO: 22, Ac-Thr-Gln-Asp-Ala-Glu-Asp-Pro-Thr-Ala-NH2] | 48.64 | 59.45 | 76.69 | 82.72 | 72.66 | –
CC(=O)N[C@H](C(=O)N[C@H]1CSSC[C@@H](C(=O)O)NC(=O)[C@H](CC(N)=O)NC(=O)[C@H](CC(=O)O)NC(=O)[C@H](CCC(=O)O)NC(=O)[C@H](C)NC(=O)[C@H](CC(=O)O)NC1=O)[C@@H](C)O [SEQ ID NO: 43, Ac-Thr-cyclo[Cys-Asp-Ala-Glu-Asp-Asn-Cys]] (Ac-TCDAEDNC-OH; disulfide 2-8) | 73.84 | 83.37 | 71.02 | 75.92 | 72.18 | –
